Data taken from US5086074A, “1-aminomethyl-1,2,3,4-tetrahydronaphthalenes” (Abbott Laboratories, priority 1990, dated 1992).
Counter-ions that a name gives are not always drawn.

Legend:
alpha-2-receptor = assay: Radioligand binding, alpha-2 adrenoceptor, rat cerebral cortices, [3H]-rauwolscine; details: ratio Ki alpha-1/Ki alpha-2
Experimental: (§1) The compounds were assessed for alpha-adrenergic receptor subtype selectivity by use of radioligand binding techniques as described previously (DeBernardis et.al. J. Med. Chem. 28, 1398 (1985)).

alpha-1-receptor = target: T1, alpha-1-receptor (Rattus norvegicus, UniProt P15823); assay: Radioligand binding, alpha-1 adrenoceptor, rat liver homogenates, [3H]-prazosin; details: rat liver homogenates, [3H]-prazosin; read-out: Ki alpha-1
T1 construct: rat liver homogenates; from tissue; host or cells: rat liver homogenate
T1 sequence (P15823 1-515): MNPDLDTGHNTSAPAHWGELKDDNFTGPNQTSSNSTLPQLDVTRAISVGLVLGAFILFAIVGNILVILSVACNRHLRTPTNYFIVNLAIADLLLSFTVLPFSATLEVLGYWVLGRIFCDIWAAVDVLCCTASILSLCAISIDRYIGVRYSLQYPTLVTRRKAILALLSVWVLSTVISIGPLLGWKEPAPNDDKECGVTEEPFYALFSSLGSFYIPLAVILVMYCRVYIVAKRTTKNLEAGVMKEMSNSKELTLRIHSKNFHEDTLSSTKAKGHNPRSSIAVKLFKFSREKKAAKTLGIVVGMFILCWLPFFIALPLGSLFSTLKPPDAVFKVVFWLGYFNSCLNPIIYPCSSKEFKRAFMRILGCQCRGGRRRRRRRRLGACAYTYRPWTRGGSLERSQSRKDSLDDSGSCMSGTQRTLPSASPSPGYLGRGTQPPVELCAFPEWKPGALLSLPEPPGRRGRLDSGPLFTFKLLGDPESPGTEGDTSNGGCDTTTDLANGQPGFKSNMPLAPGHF
Experimental: as §1

[1] = system: intraocular pressure of rabbits; assay: Effects of topically administered compounds on intraocular pressure of rabbits; format: in vivo, rabbit (New Zealand albino); details: 0.3% soln., topical to cornea
Experimental: The effect on intraocular pressure of the compounds of the invention can be determined in rabbits by using the following method.
a. Method The intraocular pressure lowering effects of the compounds were evaluated in unanesthetized, male albino, New Zealand rabbits weighing 2.0 to 2.5 kg. The rabbits were placed in Plas Labs restraining devices for the duration of the experiment. Intraocular pressure (IOP) was measured with a Bausch and Lomb Applamatic Tonometer and recorded as the average of three individual readings at each time point in the experiment. Baseline IOP values were established at three time points separated by 30 minutes. Each compound or vehicle was applied topically to the cornea in a volume of 0.1 ml to one eye in each six rabbits. The contralateral eye was untreated. IOP was recorded at 5, 15, 30, 60 and 90 minutes after dosing.

norepinephrine uptake = assay: Biogenic amine uptake inhibition in rat brain synaptosomes, norepinephrine; format: biochemical, rat (Sprague-Dawley); details: tritiated amine 0.1 μM, 37° C., 4 minutes; read-out: Biogenic Amine Uptake Inhibition IC50 Norephinephrine
Experimental: (§2) The ability of compounds of the invention to inhibit biogenic amine uptake is determined as outlined below.
(§3) Sprague-Dawley derived rats of either sex, weighing about 180-250 g, were killed by decapitation. The brains were immediately removed, placed on a glass plate chilled over crushed ice and dissected according to a modification of the method of Glowinski and Iversen (J. Neurochem. 13, 655-669, 1966). First, the rhombencephalon was separated by transverse section and discarded. The remaining tissue was bisected by a midline sagittal cut. The hypothalamus was removed using the anterior and posterior reference points, respectively. The hippocampus was peeled away and discarded and the striata were exposed and removed. Frontal cortical tissue was dissected from remaining brain structures. […] The tissues were placed in a cold Potter-Elvehjem glass homogenizer with 5 (cortex) or 10 (hypothalamus) and 20 (striatum) volumes of ice-cold 0.32M sucrose, pH 7.0 and homogenized by hand. The homogenate was centrifuged at 2500 rpm in a GLC centrifuge for 10 minutes in a refrigerated room. The supernatant fraction containing the synaptosomes was decanted, mixed thoroughly, and kept on crushed ice for use in the uptake studies.

dopamine uptake = assay: Biogenic amine uptake inhibition in rat brain synaptosomes, dopamine; format: biochemical, rat (Sprague-Dawley); details: tritiated amine 0.1 μM, 37° C., 4 minutes
Experimental: as §2, §3

serotonin uptake = assay: Biogenic amine uptake inhibition in rat brain synaptosomes, serotonin; format: biochemical, rat (Sprague-Dawley); details: tritiated amine 0.1 μM, 37° C., 4 minutes
Experimental: as §2, §3

Compound	alpha-2 - Selectivity Ki alpha-1/Ki alpha-2 (alpha-2-receptor)	Ki (alpha-1-receptor) [nM]	other results
COc1cccc2c1CCCC2CN1CCC(c2cccs2)C1 (stereo not shown) [Example 146, hydrochloride]	35	170	–
Fc1ccc2c(c1)CCCC2CN1CCC(c2ccccc2)C1 (stereo not shown) [Example 148, 6-Fluoro-1-(3-phenylpyrrolidino-1-methyl) tetralin methanesulfonate]	19	126	–
COc1ccc2c(c1)CCCC2CN(C)CCC1CCCS1 (stereo not shown) [Example 6h, 1-((N-methylamino)methyl-N-(2-(2-tetrahydrothienyl)ethyl)) 6-methoxy tetralin hydrochloride]	430	1510	–
CN(CCc1cccc(F)c1)CC1CCCc2cc(O)ccc21 (stereo not shown) [Example 10, 1-((N-Methylamino)methyl-N-(2-(m-fluorophenyl)ethyl))-6-hydroxy tetralin hydrochloride]	–	–	% Change in Intraocular Pressure After Treatment Compared to Untreated Eye in Rabbits ([1]; 5 minutes): -45%; % Change in Intraocular Pressure After Treatment Compared to Untreated Eye in Rabbits ([1]; 15 minutes): -31%; % Change in Intraocular Pressure After Treatment Compared to Untreated Eye in Rabbits ([1]; 30 minutes): -25%; % Change in Intraocular Pressure After Treatment Compared to Untreated Eye in Rabbits ([1]; 60 minutes): -36%; % Change in Intraocular Pressure After Treatment Compared to Untreated Eye in Rabbits ([1]; 90 minutes): -23%
COc1ccc2c(c1)CCC2CN1CCC(c2cccs2)C1 (stereo not shown) [Example 151, 5-Methoxy-1-(3-(2-thienyl)pyrrolidino-1-methyl) indane hydrochloride]	71	177	–
Nc1ccc2c(c1)CCCC2CN1CCC(c2ccccc2)C1 (stereo not shown) [Example 156, 6-Amino-1-(3-phenylpyrrolidino-1-methyl) tetralin dihydrochloride]	21	125	–
COc1ccc(C)c2c1CCCC2CN(C)CCc1cccs1 (stereo not shown) [Example 36, 1-((N Methylamino)methyl-N-(2-(2-thienyl)ethyl))-5-methoxy-8-methyl tetralin hydrochloride]	95	655	–
8-Fluoro-5,6-methylenedioxy-1-(3-phenylpyrrolidino-1-methyl) tetralin hydrochloride [Example 160]	–	–	IC50 (norepinephrine uptake): 991 nM; IC50 (dopamine uptake): 2930 nM; IC50 (serotonin uptake): 1840 nM
CN(CCc1cccc(F)c1)CC1CCCc2c1ccc1c2OCCO1 (stereo not shown) [Example 167, 1-((N-Methylamino)methyl-N-(2-m-fluorophenethyl))-5,6-ethylenedioxy tetralin methanesulfonate]	85	357	–
COc1ccc2c(c1)CCCC2CN1CCC(c2ccccc2)C1 (stereo not shown) [Example 121, 6-Methoxy-1-(3-phenylpyrrolidino-1-methyl) tetralin hydrochloride]	95	95	–
CCOc1ccc2c(c1)CCCC2CN(C)CCc1cccc(N)c1 (stereo not shown) [Example 69, 1-((N-Methylamino)methyl-N-(2-(m-aminophenyl)ethyl))6-ethoxy tetralin dihydrochloride]	98	1270	–
CN(CCc1ccccc1)CC1CCCc2cc(O)ccc21 (stereo not shown) [11 (HCl salt)]	–	–	% Change in Intraocular Pressure After Treatment Compared to Untreated Eye in Rabbits ([1]; 5 minutes): -38%; % Change in Intraocular Pressure After Treatment Compared to Untreated Eye in Rabbits ([1]; 15 minutes): -55%; % Change in Intraocular Pressure After Treatment Compared to Untreated Eye in Rabbits ([1]; 30 minutes): -54%; % Change in Intraocular Pressure After Treatment Compared to Untreated Eye in Rabbits ([1]; 60 minutes): -44%; % Change in Intraocular Pressure After Treatment Compared to Untreated Eye in Rabbits ([1]; 90 minutes): -20%
CN(c1ccc2c(c1)CCCC2CN1CCC(c2ccccc2)C1)S(C)(=O)=O (stereo not shown) [Example 193, 6-(N-methylmethylsulfonamido)-1-(3-phenylpyrrolidino-1methyl)tetralin hydrochloride]	93	121	–
COc1ccc2c(c1)CCC2CN1CCC(c2cccc(F)c2)C1 (stereo not shown) [Example 153, 5-Methoxy-1-(3-(m-fluorophenyl)pyrrolidino-1-methyl) indane hydrochloride]	7	58	–
c1ccc(C2CCN(CC3CCCc4c3ccc3c4OCO3)C2)cc1 (stereo not shown) [Example 143a, 5,6-Methylenedioxy-1-(3-phenylpyrrolidino-1-methyl) tetralin methanesulfonate]	43	51	–
Fc1ccc2c(c1)CCCC2CN1CCC(c2cccs2)C1 (stereo not shown) [Example 149, 6-Fluoro-1-(3-(2-thienyl)pyrrolidino-1-methyl) tetralin methanesulfonate]	45	–	–
CN(CCc1cccs1)CC1CCCc2c(Cl)cccc21 (stereo not shown) [Example 129, 1-((N-Methylamino)methyl-N-(2-(2-thieny)ethyl))5-chloro tetralin hydrochloride]	55	198	–
